From publication PMC9929129, “Towards Translation of PqsR Inverse Agonists: From In Vitro Efficacy Optimization to In Vivo Proof‐of‐Principle” (Advanced Science, 2023)

Key:
[1] = target: T1, HTR2B Human 5-Hydroxytryptamine GPCR (Homo sapiens, UniProt P41595); assay: HTR2B GPCR calcium assay, 86-0030P-2091AG; assay type: cell-based
T1 construct: 86-0030P-2091AN
From the text: (§1) 1.4.2 Further functional off-target assays (Eurofins)
(§2) Table S8. Compound 24 was further tested in the following functional assays at Eurofins.
(§3) ASSAY NAME ESTIMATED IC50 [µM] […]
(§4) FLIPR Assay expressed in HEK293 cells
(§5) GABAA α5/β3/γ2 ionotropic receptor (human GABRA5, GABRB3, >30
(§6) and GABRG2 genes, expressed in HEK293 cells

[2] = tested on: PA14 biofilm; assay: eDNA release assay; assay type: cell-based; conditions: Pseudomonas aeruginosa; PA14, propidium iodine staining
Description: The eDNA release assay was performed as described previously[3] with slight modifications. The impact on eDNA was assessed by incubation of biofilm with propidium iodine solution (0.025 mg mL−1) for 3 h and detection of specific florescence at 620 nm after a thorough washing step with […]
1.2.7 P. aeruginosa clinical isolates from bronchiectasis patients – phenotypic characterization and inhibition of pyocyanin production
Clinical isolates. The P. aeruginosa strains had been isolated from respiratory secretions collected from patients with bronchiectasis seen at the bronchiectasis out-patient clinic of Hannover Medical School. The clinical isolates were genotyped by a custom-made multilocus microarray.[4] The hexadecimal SNP genotype was converted into the multilocus sequence genotype (MLST)[5] by comparison with the sequence of the seven selected housekeeping genes in genome sequences of the same clone deposited in our in-house[6] or the International Pseudomonas Genome Database.[7]

[3] = tested on: P. aeruginosa strain ATCC 27853; assay: Neutropenic thigh infection model in mice
Description: Figure S6. AUC levels after IV and IT administration
1.4.8 In vivo thigh infection model with P. aeruginosa
Male, 6 weeks-old, CD -1 mice (Charles River, Netherlands) were rendered neutropenic by administration of 150 mg/kg and 100 mg/kg cyclophosphamide i.p. on day –4, –1 and +1, respectively. The P. aeruginosa strain ATCC 27853 was used. The inoculum was prepared as follows: on day –1 the P. aeruginosa strain was streaked out onto a blood agar plate and incubated at 37 °C.
Then one sing le colony was inoculated into MHB medium (diluted 1:2 in water) and incubated at 120 rpm and 37 °C. […]
PBS. Then they were adjusted to an OD of 1 and diluted 1:5000 in PBS. The inoculum was plated onto MHB agar plates in serial dilutions and incubated at 37 °C. Mice were grouped into the following (n=18 for each group): (1) baseline inoculum group, sacrificed 2 h post infection; (2) vehicle control group (receiving vehicle t= 2, 12, 24 and 36 h post infection as well as 20 mg/kg tramadol SC t= 0 and 24 h post infection); (3) tobramycin group I (8 mg/kg tobramycin IV at t= 2 and 24 h post infection); (4) tobramycin group II (1 mg/kg tobramycin IV at t= 2 and 24 h post infection); (5) 24 group (30 mg/kg 24 SC at t=2, 12, 24 and 36 h post infection); (6) 24 + tobramycin group (30 mg/kg 24 SC at t=2, 12, 24 and 36 h and tobramycin 1 mg/kg IV at t= 2 and 24 h post infection). On the day of infection (day 0), mice received 30 µL of the P. aeruginosa strain ATCC 27853 into each lateral thigh (inoculum:
1x10^5 cfu/mL). 48 h after infection, mice were euthanized, blood was removed from the heart, lung and thighs were aseptically removed. […]
homogenized in 0.9% NaCl-solution and plated onto MHB agar plates in duplicate in serial dilutions and incubated at 37 °C for 24 h. Blood, lung and thighs were also subjected to LC-MS/MS analysis.
Figure S8. Plasma and lung-tissue levels after the in vivo infection model.

[4] = target: T1, HTR2B Human 5-Hydroxytryptamine GPCR; assay: HTR2B GPCR calcium assay, 86-0030P-2091AN; assay type: cell-based
From the text: as §1, §2, §3, §4, §5, §6

[5] = target: T2, TRPV4 channel (Homo sapiens, UniProt Q9HBA0); assay: Ion channel profiling at Charles River: TRPV4; assay type: cell-based; conditions: expressed in CHO cells; read-out: ESTIMATED IC50
T2 construct: host or cells: CHO cells
T2 sequence (Q9HBA0 whole entry): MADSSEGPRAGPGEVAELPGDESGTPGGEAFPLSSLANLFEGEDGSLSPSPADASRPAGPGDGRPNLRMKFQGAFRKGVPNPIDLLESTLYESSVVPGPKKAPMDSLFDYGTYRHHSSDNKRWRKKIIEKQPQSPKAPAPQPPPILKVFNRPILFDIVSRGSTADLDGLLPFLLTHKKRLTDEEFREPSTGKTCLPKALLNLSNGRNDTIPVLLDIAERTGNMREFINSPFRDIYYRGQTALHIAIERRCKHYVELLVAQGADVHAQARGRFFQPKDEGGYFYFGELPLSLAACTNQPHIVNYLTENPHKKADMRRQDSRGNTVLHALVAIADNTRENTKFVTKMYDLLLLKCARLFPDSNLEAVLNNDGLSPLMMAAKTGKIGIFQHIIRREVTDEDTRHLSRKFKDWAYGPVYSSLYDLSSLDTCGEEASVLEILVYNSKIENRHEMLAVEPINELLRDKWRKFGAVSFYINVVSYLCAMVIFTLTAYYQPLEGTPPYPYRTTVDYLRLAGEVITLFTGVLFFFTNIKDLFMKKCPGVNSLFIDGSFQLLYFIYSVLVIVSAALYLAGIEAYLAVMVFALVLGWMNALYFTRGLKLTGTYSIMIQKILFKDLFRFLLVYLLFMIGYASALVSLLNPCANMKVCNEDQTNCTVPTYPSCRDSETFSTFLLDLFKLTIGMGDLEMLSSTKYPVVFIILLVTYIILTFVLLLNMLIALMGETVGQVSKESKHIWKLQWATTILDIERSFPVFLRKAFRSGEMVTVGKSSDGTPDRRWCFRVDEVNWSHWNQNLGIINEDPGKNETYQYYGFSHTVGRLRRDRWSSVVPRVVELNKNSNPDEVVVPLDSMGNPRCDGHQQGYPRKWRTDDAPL
Description: 1.4.3 Ion Channel Profiling at Charles River
Table S9. Compound 24 was tested against the following ion channels at Charles River Laboratories. […]
ScreenPatch Assay Kv1.3 potassium channel (human KCNA3 gene) expressed in CHO […]
as §4
GABAA α5/β3/γ2 ionotropic receptor (human GABRA5, GABRB3, >30 and GABRG2 genes, expressed in HEK293 cells […]
An increase in the number of colonies of at least two-fold over baseline (mean + SD of the vehicle control) and a dose response indicate a positive response. An […]
different from the vehicle control.
Where indicated, S9 fraction from the livers of Aroclor 1254-treated rats were included in the incubation at a final concentration of 4.5%. A NADPH-regenerating system was also included to ensure a steady supply of reducing equivalents.

T1 sequence (P41595 whole entry): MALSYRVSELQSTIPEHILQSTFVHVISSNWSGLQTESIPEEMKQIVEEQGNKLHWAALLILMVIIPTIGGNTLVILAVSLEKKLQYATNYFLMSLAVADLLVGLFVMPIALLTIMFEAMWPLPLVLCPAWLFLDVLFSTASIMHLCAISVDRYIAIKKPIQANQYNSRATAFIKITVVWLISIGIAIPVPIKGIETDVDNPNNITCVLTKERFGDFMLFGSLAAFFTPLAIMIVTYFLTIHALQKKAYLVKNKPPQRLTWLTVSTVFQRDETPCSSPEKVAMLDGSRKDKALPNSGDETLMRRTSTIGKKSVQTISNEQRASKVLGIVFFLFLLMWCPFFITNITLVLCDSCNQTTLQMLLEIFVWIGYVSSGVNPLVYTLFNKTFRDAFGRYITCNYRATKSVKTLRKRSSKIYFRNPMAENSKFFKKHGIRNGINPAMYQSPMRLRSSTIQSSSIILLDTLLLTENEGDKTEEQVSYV

| Compound | IC50 [1] [µM] | IC50 [2] [µM] | bacterial burden in the muscle compared to all other groups ([3]; 24 30 mg kg^−1 SC combined with low dose tobramycin 1 mg kg^−1 IV, 48 h, p < 0.001) | bacterial burden, secondary site of infection (lung), dissemination ([3]; 24 30 mg/kg SC combined with low tobramycin dose 1 mg/kg IV, 48 h) | CFU reduction over vehicle, primary infection site (thigh muscle) ([3]; 24 alone, 30 mg/kg SC at 2, 12, 24 and 36 h p.i., 48 h) | bacterial burden, secondary site of infection (lung), dissemination ([3]; 24 alone, 30 mg/kg SC, 48 h) | IC50 [4] [µM] | IC50 [5] [µM] | terminal level in plasma and lung tissue (LC–MS/MS) ([3]; 48 h after infection) | CFU reduction over vehicle, primary infection site (thigh muscle) ([3]; tobramycin high, 8 mg/kg IV at 2 and 24 h p.i., 48 h) | bacterial burden, secondary site of infection (lung), dissemination ([3]; tobramycin high, 8 mg/kg IV, 48 h) | CFU reduction over vehicle, primary infection site (thigh muscle) ([3]; tobramycin low, 1 mg/kg IV at 2 and 24 h p.i., 48 h) | bacterial burden, secondary site of infection (lung), dissemination ([3]; tobramycin low, 1 mg/kg IV, 48 h) |
| --- | --- | --- | --- | --- | --- | --- | --- | --- | --- | --- | --- | --- | --- |
| CC(C)Oc1ccc(-c2ncc(CNc3ccnc(C(F)(F)F)c3)cn2)cc1Cl [Compound 24] | > 10 | 0.346 | significantly reduced bacterial burden | detectable inhibition of dissemination | did not exert significant effects | did not show a significant effect | > 10 | > 30 |  |  |  |  |  |
| NC[C@H]1O[C@H](O[C@H]2[C@H](O)[C@@H](O[C@H]3O[C@H](CO)[C@@H](O)[C@H](N)[C@H]3O)[C@H](N)C[C@@H]2N)[C@H](N)C[C@@H]1O [Tobramycin, tobramycin] |  |  |  |  |  |  |  |  | did not detect any | did not exert significant effects | did not reach significance | did not exert significant effects | did not show a significant effect |
